Measurements taken from US6242494A, “Substituted β-amino acid inhibitors of methionine aminopeptidase-2” (Abbott Laboratories, priority 1999, dated 2001).

How the values were obtained:
[1] = test system: angiogenesis; conditions: cited from earlier work; for inhibition of angiogenesis: result in words
[2] = test system: type 2 methionine aminopeptidase, MetAP2; conditions: result in words; cited from earlier work
[3] = test system: endothelial cell cycle; conditions: late G1 phase; result in words; cited from earlier work
[4] = test system: MetAP2; conditions: result in words; cited from earlier work
[5] = target: T1, methionine aminopeptidase-2 (MetAP2) (Homo sapiens, UniProt P50579); test: Inhibition of MetAP2 enzyme activity (96-well, Met-Ala-Ser substrate, L-amino acid oxidase/peroxidase/ortho-dianisidine, 450 nm); format: biochemical; conditions: recombinant MetAP2 4 μg/mL, pH 7.4, Met-Ala-Ser substrate, 20 minutes; read-out: IC50
T1 construct: made in house; host or cells: insect cells, baculovirus system (secreted, purified from culture supernatant)
T1 sequence (P50579 whole entry): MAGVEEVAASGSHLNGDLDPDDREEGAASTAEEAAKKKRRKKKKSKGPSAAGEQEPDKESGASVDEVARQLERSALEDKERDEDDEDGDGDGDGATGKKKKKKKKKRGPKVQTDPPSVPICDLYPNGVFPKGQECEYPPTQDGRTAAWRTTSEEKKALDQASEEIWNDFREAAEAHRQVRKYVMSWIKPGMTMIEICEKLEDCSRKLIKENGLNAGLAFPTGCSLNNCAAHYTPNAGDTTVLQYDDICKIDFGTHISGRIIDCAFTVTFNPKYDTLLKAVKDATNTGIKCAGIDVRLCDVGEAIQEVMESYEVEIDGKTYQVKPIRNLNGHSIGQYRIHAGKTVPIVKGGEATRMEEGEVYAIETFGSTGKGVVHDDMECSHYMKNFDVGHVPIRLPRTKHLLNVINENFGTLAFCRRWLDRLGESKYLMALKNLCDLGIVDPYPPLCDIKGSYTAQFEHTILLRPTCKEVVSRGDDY

For `CO[C@@H]1[C@H](OC(=O)NC(=O)CCl)CC[C@]2(CO2)[C@H]1[C@@]1(C)O[C@@H]1CC=C(C)C` [TNP-470, O-(chloroacetylcarbamoyl)fumagillol], the “potency as angiogenesis inhibitor relative to natural precursor fumagillin” value ([1]; more potent than fumagillin) is listed as 50 fold, the inhibition of angiogenesis [1] is listed as “potent inhibitors of angiogenesis” and the “binding to MetAP2” value [2] is listed as “bind to a common bifunctional protein, type 2 methionine aminopeptidase, MetAP2”. For the same compound, the “inhibition of neovascularization by arresting the endothelial cell cycle” value [3] was “effective in inhibiting neovacularization by arresting the endothelial cell cycle in the late G1 phase” and the “mode of MetAP2 inhibition” value [4] was “irreversible inhibitors”.
In the case of `CO[C@@H]1[C@H](OC(=O)/C=C/C=C/C=C/C=C/C(=O)O)CC[C@]2(CO2)[C@H]1[C@@]1(C)O[C@@H]1CC=C(C)C` [fumagillin], the inhibition of angiogenesis [1] is given as “potent inhibitors of angiogenesis”, the “inhibition of neovascularization by arresting the endothelial cell cycle” value [3] is given as “effective in inhibiting neovacularization by arresting the endothelial cell cycle in the late G1 phase” and the “mode of MetAP2 inhibition” value [4] is given as “irreversible inhibitors”.
For “(2RS,3R)-3-Amino-2-hydroxy-4-cyclohexyl)butanoyl-L-alanine Cyclopropyl Ester Hydrochloride [Example 92]”, the IC50 [5] was 1400 nM.
With “(((2RS,3R)-3-amino-4cyclohexyl-2-hydroxybutanoyl)amino)(2,5-dimethoxybenzyl)chloronium hydrochloride [Example 163]” the IC50 [5] was 480 nM.
